According to patent US20250129069A1, “TRIAZOLO WRN INHIBITORS” (Nimbus Wadjet, Inc., priority 2023, published 2025):
Like-named read-outs stand apart in the source and are kept apart here.

Experiments:
[1] = test system: p21 induction in HCT 116 cells; assay: p21 induction in cells (In-Cell Western, p21/GAPDH ratio); assay type: cell-based; conditions: 24 h compound incubation, read-out: p21_EC50
Method in brief: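 EC50 values come from nonlinear fits of percent activation, defined by the 800/700 nm p21-to-GAPDH ratio scaled between DMSO (low) and internal WRN inhibitor (high) controls. In-Cell Western read after 24 h compound exposure of HCT 116 cells at 37° C. Duplicate 11-point series, 2-fold steps, usually starting at 10 μM.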

[2] = molecular target: human Werner helicase (WRN, amino acids 517-1235 with L1074F point mutation) (Homo sapiens (Human), UniProt Q14191, L1074F); assay: WRN (BV08) ADP-Glo assay; assay type: biochemical; conditions: human WRN (aa 517-1235, L1074F), read-out: ADP-Glo_hWRN_IC50
human Werner helicase (WRN, amino acids 517-1235 with L1074F point mutation), sequence (Q14191 other isoform, or with tags, fused parts or gaps L1074F (already in the parent)): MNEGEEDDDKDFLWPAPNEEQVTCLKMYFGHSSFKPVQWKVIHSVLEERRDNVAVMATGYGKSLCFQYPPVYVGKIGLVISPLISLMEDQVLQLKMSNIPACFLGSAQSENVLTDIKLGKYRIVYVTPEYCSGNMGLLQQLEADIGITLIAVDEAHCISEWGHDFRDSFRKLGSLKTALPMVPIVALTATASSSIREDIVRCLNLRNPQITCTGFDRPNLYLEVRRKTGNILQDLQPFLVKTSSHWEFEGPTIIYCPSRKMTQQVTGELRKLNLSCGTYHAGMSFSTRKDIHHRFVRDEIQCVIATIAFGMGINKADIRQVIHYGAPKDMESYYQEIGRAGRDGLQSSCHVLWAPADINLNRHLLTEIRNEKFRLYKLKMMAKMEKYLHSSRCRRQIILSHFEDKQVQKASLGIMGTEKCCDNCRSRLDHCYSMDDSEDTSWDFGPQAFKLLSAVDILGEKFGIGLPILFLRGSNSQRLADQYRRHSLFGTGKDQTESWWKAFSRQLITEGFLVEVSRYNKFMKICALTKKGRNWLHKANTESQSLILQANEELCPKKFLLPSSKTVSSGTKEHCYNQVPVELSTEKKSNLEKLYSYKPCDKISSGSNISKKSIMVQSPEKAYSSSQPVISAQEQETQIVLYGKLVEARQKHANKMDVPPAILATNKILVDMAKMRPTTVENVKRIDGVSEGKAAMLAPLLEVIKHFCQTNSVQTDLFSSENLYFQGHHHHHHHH
Method in brief: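 ADP-Glo luminescence read after 60 min, 25 °C reaction of 0.15 nM WRN (517-1235, L1074F, Sf9-expressed, tag removed) with 0.1 nM DNA duplex and 5 μM ATP, following 15 min compound preincubation; 20 mM Bicine pH 7.5, 1% DMSO. IC50 from 3- or 4-parameter fit of % inhibition.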

Row | Compound | EC50 ([1]; Homo sapiens) [nM] | IC50 [2] [nM] | EC50 [1] [nM]
1 | CCc1c(N2CCN(C(=O)c3ncnc(C)c3O)[C@H]3CC[C@@H]32)c(=O)c2nn(-c3cnn(C4CC4)c3)nc2n1CC(=O)Nc1ccc(C(F)(F)F)cc1Cl [Compound I-57, N-[2-chloro-4-(trifluoromethyl)phenyl]-2-[2-(1-cyclopropyl-1H-pyrazol-4-yl)-5-ethyl-6-[(1S,6S)-5-(5-hydroxy-6-methylpyrimidine-4-carbonyl)-2,5-diazabicyclo[4.2.0]octan-2-yl]-7-oxo-2H,4H,7H-[1,2,3]triazolo[4,5-b]pyridin-4-yl]acetamide] | ≤ 500 | ≤ 5 | –
2 | CCc1c(N2CCN(C(=O)c3ncnc(C)c3O)CC2)c(=O)c2nn(-c3ccncc3)nc2n1CC(=O)NC12CC(CC)(C1)C2 [Compound I-138, 2-{5-ethyl-6-[4-(5-hydroxy-6-methylpyrimidine-4-carbonyl)piperazin-1-yl]-7-oxo-2-(pyridin-4-yl)-2H,4H,7H-[1,2,3]triazolo[4,5-b]pyridin-4-yl}-N-{3-ethylbicyclo[1.1.1]pentan-1-yl}acetamide] | 500 to 2000 | 5 to 50 | –
3 | CCc1c(N2CCN(C(=O)c3ncnc(C)c3O)[C@H]3CC[C@@H]32)c(=O)c2nn(-c3ccnc(C)c3)nc2n1CC(=O)Nc1ccc(C(F)(F)F)cc1Cl [Compound I-9, N-(2-chloro-4-(trifluoromethyl)phenyl)-2-(5-ethyl-6-((1S,6S)-5-(5-hydroxy-6-methylpyrimidine-4-carbonyl)-2,5-diazabicyclo[4.2.0]octan-2-yl)-2-(2-methylpyridin-4-yl)-7-oxo-2,7-dihydro-4H-[1,2,3]triazolo[4,5-b]pyridin-4-yl)acetamide] | ≤ 500 | 5 to 50 | –
4 | CCc1c(N2CCN(C(=O)c3cncnc3OC)[C@H]3CC[C@@H]32)c(=O)c2nn(C3=CCOCC3)nc2n1CC(=O)NC12CC(C(C)C)(C1)C2 [Compound I-201, 2-[2-(3,6-dihydro-2H-pyran-4-yl)-5-ethyl-6-[(1S,6S)-5-(4-methoxypyrimidine-5-carbonyl)-2,5-diazabicyclo[4.2.0]octan-2-yl]-7-oxo-2H,4H,7H-[1,2,3]triazolo[4,5-b]pyridin-4-yl]-N-[3-(propan-2-yl)bicyclo[1.1.1]pentan-1-yl]acetamide] | ≤ 500 | 5 to 50 | –
5 | CCc1c(N2CCN(C(=O)c3c(OC)ncc(C)c3O)[C@H]3CC[C@@H]32)c(=O)c2nn(-c3ccnc(C)c3)nc2n1CC(=O)NC12CC(C3CC3)(C1)C2 [Compound I-74, N-{3-cyclopropylbicyclo[1.1.1]pentan-1-yl}-2-{5-ethyl-6-[(1S,6S)-5-(4-hydroxy-2-methoxy-5-methylpyridine-3-carbonyl)-2,5-diazabicyclo[4.2.0]octan-2-yl]-2-(2-methylpyridin-4-yl)-7-oxo-2H,4H,7H-[1,2,3]triazolo[4,5-b]pyridin-4-yl}acetamide] | ≤ 500 | 5 to 50 | –
6 | CCc1c(N2CCN(C(=O)c3ncnc(C)c3O)[C@H](C)C2)c(=O)c2nn(-c3ccnc(OC)c3)nc2n1CC(=O)NC12CC(C3CC3)(C1)C2 [Compound I-178, N-{3-cyclopropylbicyclo[1.1.1]pentan-1-yl}-2-{5-ethyl-6-[(3R)-4-(5-hydroxy-6-methylpyrimidine-4-carbonyl)-3-methylpiperazin-1-yl]-2-(2-methoxypyridin-4-yl)-7-oxo-2H,4H,7H-[1,2,3]triazolo[4,5-b]pyridin-4-yl}acetamide] | 500 to 2000 | 5 to 50 | –
7 | CCc1c(N2CCN(C(=O)c3ncnc(C)c3O)[C@H]3CC[C@@H]32)c(=O)c2nn(-c3cnn(C4CC4)c3)nc2n1CC(=O)NC12CC(C(C)C)(C1)C2 [Compound I-25, 2-(2-(1-cyclopropyl-1H-pyrazol-4-yl)-5-ethyl-6-((1S,6S)-5-(5-hydroxy-6-methylpyrimidine-4-carbonyl)-2,5-diazabicyclo[4.2.0]octan-2-yl)-7-oxo-2,7-dihydro-4H-[1,2,3]triazolo[4,5-b]pyridin-4-yl)-N-(3-isopropylbicyclo[1.1.1]pentan-1-yl)acetamide] | ≤ 500 | 5 to 50 | –
8 | CCc1c(N2CCN(C(=O)c3ccc4cccnc4c3O)[C@H]3CC[C@@H]32)c(=O)c2nn(C3=CCOCC3)nc2n1CC(=O)NC12CC(C(C)C)(C1)C2 [Compound I-159, 2-[2-(3,6-dihydro-2H-pyran-4-yl)-5-ethyl-6-[(1S,6S)-5-(8-hydroxyquinoline-7-carbonyl)-2,5-diazabicyclo[4.2.0]octan-2-yl]-7-oxo-2H,4H,7H-[1,2,3]triazolo[4,5-b]pyridin-4-yl]-N-[3-(propan-2-yl)bicyclo[1.1.1]pentan-1-yl]acetamide] | 500 to 2000 | 5 to 50 | –
9 | CCc1c(N2CCN(C(=O)c3ncnc(C)c3O)[C@H]3CC[C@@H]32)c(=O)c2nn(-c3cnn(C4CC4)c3)nc2n1CC(=O)NC12CC(C3CC3)(C1)C2 [Compound I-46, 2-[2-(1-cyclopropyl-1H-pyrazol-4-yl)-5-ethyl-6-[(1S,6S)-5-(5-hydroxy-6-methylpyrimidine-4-carbonyl)-2,5-diazabicyclo[4.2.0]octan-2-yl]-7-oxo-2H,4H,7H-[1,2,3]triazolo[4,5-b]pyridin-4-yl]-N-{3-cyclopropylbicyclo[1.1.1]pentan-1-yl}acetamide] | ≤ 500 | 5 to 50 | –
10 | CCc1c(N2CCN(C(=O)c3c(OC)ncc(COC)c3O)CC2)c(=O)c2nn(-c3ccnc(OC)c3)nc2n1CC(=O)NC12CC(C(C)C)(C1)C2 [Compound I-50, 2-(5-ethyl-6-{4-[4-hydroxy-2-methoxy-5-(methoxymethyl)pyridine-3-carbonyl]piperazin-1-yl}-2-(2-methoxypyridin-4-yl)-7-oxo-2H,4H,7H-[1,2,3]triazolo[4,5-b]pyridin-4-yl)-N-[3-(propan-2-yl)bicyclo[1.1.1]pentan-1-yl]acetamide] | 2000 to 5000 | 5 to 50 | –
11 | CCc1c(N2CCN(C(=O)c3ncnc(C)c3O)CC2)c(=O)c2nn(-c3ccncc3)nc2n1CC(=O)Nc1ccc(C(F)(F)F)cc1Cl [Compound I-147, N-[2-chloro-4-(trifluoromethyl)phenyl]-2-{5-ethyl-6-[4-(5-hydroxy-6-methylpyrimidine-4-carbonyl)piperazin-1-yl]-7-oxo-2-(pyridin-4-yl)-2H,4H,7H-[1,2,3]triazolo[4,5-b]pyridin-4-yl}acetamide] | ≤ 500 | ≤ 5 | –
12 | CCc1c(N2CCN(C(=O)c3c(OC)ncc(C)c3O)[C@H]3CC[C@@H]32)c(=O)c2nn(C3=CCOCC3)nc2n1CC(=O)Nc1ccc(C(F)(F)F)cc1Cl [Compound I-23, N-(2-chloro-4-(trifluoromethyl)phenyl)-2-(2-(3,6-dihydro-2H-pyran-4-yl)-5-ethyl-6-((1S,6S)-5-(4-hydroxy-2-methoxy-5-methylnicotinoyl)-2,5-diazabicyclo[4.2.0]octan-2-yl)-7-oxo-2,7-dihydro-4H-[1,2,3]triazolo[4,5-b]pyridin-4-yl)acetamide] | ≤ 500 | ≤ 5 | –
13 | CCc1c(N2CCN(C(=O)c3ncnc(C)c3O)[C@H]3CC[C@@H]32)c(=O)c2nn(-c3ccnc(OC)c3)nc2n1CC(=O)NC12CC(C(C)C)(C1)C2 [Compound I-48, 2-{5-ethyl-6-[(1S,6S)-5-(5-hydroxy-6-methylpyrimidine-4-carbonyl)-2,5-diazabicyclo[4.2.0]octan-2-yl]-2-(2-methoxypyridin-4-yl)-7-oxo-2H,4H,7H-[1,2,3]triazolo[4,5-b]pyridin-4-yl}-N-[3-(propan-2-yl)bicyclo[1.1.1]pentan-1-yl]acetamide] | – | 5 to 50 | ≤ 500
14 | CCc1c(N2CCN(C(=O)c3ncnc(C)c3O)[C@H]3CC[C@@H]32)c(=O)c2nn(-c3ccnc(OC)c3)nc2n1CC(=O)NC1CC2(CCC(F)(F)CC2)C1 [Compound I-68, N-{7,7-difluorospiro[3.5]nonan-2-yl}-2-{5-ethyl-6-[(1S,6S)-5-(5-hydroxy-6-methylpyrimidine-4-carbonyl)-2,5-diazabicyclo[4.2.0]octan-2-yl]-2-(2-methoxypyridin-4-yl)-7-oxo-2H,4H,7H-[1,2,3]triazolo[4,5-b]pyridin-4-yl}acetamide] | > 5000 | 5 to 50 | –
